We go through six compounds from patent US7411067B2, “Crystalline forms of gatifloxacin” (Teva Pharmaceutical Industries Ltd, priority 2002, dated 2008).

A short description of data set [1]: Exposure of powder as a thin layer in a controlled humidity cell; resulting crystalline form by x-ray diffraction. The note with it: 200 mg powder as thin layer. Format: physicochemical. The method, then: As used herein in connection with the present invention, x-ray diffraction refers to x-ray diffraction by the powder diffraction technique. X-ray powder diffraction analysis was performed using a Scintag powder diffractometer with variable goniometer, a Cu source, and a solid state detector. A standard round aluminum sample holder with zero background quartz plate was used. Samples were scanned from 2° to 40° 2θ at 3° per minute in the continuous scan mode. Reflections are reported as peak maxima in the intensity vs. 2θ plots, and are subject to the normal experimental error (uncertainty). Samples were promptly analyzed “as is”.
In another embodiment, the present invention provides a method of making a mixture of novel crystalline form O and prior-art sesqihydrate. The ratios will depend, inter alia, on the conditions of treatment. The mixtures can be made by exposing prior art forms omega or TE, or crystalline form C (characterized by x-ray reflections at 7.2°, 10.8°, 15.8°, 21.8°, and 26.2°±0.2° 2θ) to an atmosphere having a relative humidity of at least about 60% (form c), or at least about 80% (form TE and omega) for an exposing time. The exposing time will generally be between about 24 hours and two weeks.
Preferably, the form omega, TE, or C is exposed as a thin layer of particles or crystals to facilitate diffusion of gasses and vapors. Preferably, the exposing is at ambient temperature.
The present invention can be further illustrated with the following non-limiting examples. In the following examples, the polymorphic or pseudopolymorphic form of gatifloxacin was determined by x-ray diffraction.
Gatifloxacin in form Ω (200 mg powder) was spread as a thin layer in a container having short vertical walls. The container was placed in a controlled humidity cell at 100% RH for 1 week.

The conditions of data set [2]: reported in U.S. Pat. No. 5,880,283; cited from earlier work.
For data set [3] the following is noted: among the crystalline forms, per WO 02/22126 A1; cited from earlier work.
For data set [4] the following is noted: room temperature, among the crystalline forms, per WO 02/22126 A1; cited from earlier work.
The conditions of data set [5]: reported in U.S. Pat. No. 5,880,283; cited from earlier work. The source holds these as a separate data set.

Consider `COc1c(N2CCNC(C)C2)c(F)cc2c(=O)c(C(=O)O)cn(C3CC3)c12` (stereo not drawn) [form C, gatifloxacin], for which the “crystalline form found after humidity exposure” value (“crystalline form found” for short) in data set [1] (60% RH, two weeks) is “approximately 80:20 mixture by weight of form C and form O”; in data set [1] (80% RH, two weeks), “approximately 30:70 mixture by weight of form O and sesquihydrate”; in data set [1] (100% RH, two weeks), “mixture of form O and sesquihydrate”.

On to `COc1c(N2CCNC(C)C2)c(F)cc2c(=O)c(C(=O)O)cn(C3CC3)c12` (stereo not drawn) [form TE, gatifloxacin], for which the “crystalline form found” value in data set [1] (80% RH, two weeks) is “approximately equal weight mixture (1:1) of form O and sesquihydrate”; in data set [1] (100% RH, two weeks), “approximately equal weight (1:1) mixture of form O and sesquihydrate”.

Take `COc1c(N2CCNC(C)C2)c(F)cc2c(=O)c(C(=O)O)cn(C3CC3)c12` (stereo not drawn) [form Ω, gatifloxacin]: the “crystalline form found” value is “approximately equal weight (1:1) mixture of form O and form Ω” in data set [1] (80% RH, 1 week); “approximately equal weight (1:1) mixture of form O and sesquihydrate” in data set [1] (100% RH, 1 week).

Take `COc1c(N2CCNC(C)C2)c(F)cc2c(=O)c(C(=O)O)cn(C3CC3)c12` (stereo not drawn) [hemihydrate, gatifloxacin]: in data set [2], the hygroscopicity entry is given as “hygroscopic”.

Take `COc1c(N2CCNC(C)C2)c(F)cc2c(=O)c(C(=O)O)cn(C3CC3)c12` (stereo not drawn) [pentahydrate, gatifloxacin]: the thermodynamic stability result in data set [3] is reported as “most thermodynamically stable form”. The aqueous solubility result in data set [4] is recorded as “lowest”.

With `COc1c(N2CCNC(C)C2)c(F)cc2c(=O)c(C(=O)O)cn(C3CC3)c12` (stereo not drawn) [sesquihydrate, gatifloxacin], in data set [2], the hygroscopicity result is on record as “less hygroscopic”. Moreover, the stability in manufacturing result in data set [5] is given as “more stable”.
